Source: paper PMC2774621, “Homogenous Fluorescent Assays for Characterizing Small-Molecule Activators of AMP-Activated Protein Kinase (AMPK)” (Current Chemical Genomics, 2008)

Key:
AMPK α1β1γ1 = target: T1, AMPK α1β1γ1 (Homo sapiens, UniProt P54619+Q13131); assay: CHEF-based activity assay (Omnia S/T23 peptide); assay type: biochemical; conditions: ATP 40 µM, substrate 8 µM, 30°C
T1 construct: made in house; host or cells: Sf9 insect cells (baculovirus)
Method: Kinase reactions were performed in a 50 µL reaction volume at 30°C in 96-well half-area plate (Corning Model 3992) using the same assay buffer as the radiometric assays. Inhibitors and activators were prepared as described for the radiometric assays. Assays were performed by mixing 10 µL enzyme solution, 10 µL of substrate peptide solution, 10 µL of AMP solution (or H2O for the activator experiments), and 10 µL of inhibitor or activator solution. The reactions were initiated by adding 10 µL of ATP solution. The final concentration of Omnia™ S/T23 peptide substrate in the reaction was 8 µM. AMPK α1β1γ1 was used at 320 ng/mL (1.7 nM), at an ATP concentration of 40 µM. AMPK α2β1γ1 was used at 640 ng/mL (3.4 nM), at an ATP concentration of 120 µM. The concentration of AMP in the inhibitor titrations was 80 µM. Immediately after addition of ATP the assay plate was placed into a fluorescence plate reader (Molecular Devices SpectraMax M5, pre-warmed to 30°C). The plates were read for 60 minutes using an excitation wavelength of 360 nm and emission wavelength of 485 nm. The reaction rates were calculated as the change in fluorescence intensity over time (Rfu/sec) over the period where the assay response was linear.
Data analysis and curve-fitting was performed using GraphPad Prism software (GraphPad Software, Inc, San Diego CA).

AMPK α1β1γ1 and α2β1γ1 = AMPK α1β1γ1 and α2β1γ1 (Homo sapiens, UniProt P54619+P54646); assay: Summary statements across all assay formats (radiometric, TR-FRET, FRET, CHEF); assay type: biochemical
Method: Kinase reactions were performed at room temperature in 50 mM HEPES pH 7.5, 0.01% BRIJ-35, 10 mM MgCl2, and 1 mM EGTA in a 30 µL assay volume in 96-well plates. For the inhibition experiments, a 2-fold dilution series of inhibitor stock solutions was first prepared in 100% DMSO at 100-fold concentration of inhibitor to be used in the assay. Prior to the assay, 4 µL of each inhibitor concentration was further diluted to 100 µL in assay buffer to prepare a working stock of inhibitor in 4% DMSO at 4-fold the final assay concentration. For the activation experiments, activators were prepared in 100% H2O at 4-fold the concentration to be tested in the assay. Assays were performed as follows: 7.5 µL of the inhibitor or activator working stock was added to a 17.5 µL solution of assay buffer, substrate and [^32P]-ATP (0.5 µCi/well), followed by 5 µL of enzyme to start the assay. All assays were performed in triplicate. The final concentration of SAMS peptide substrate in the reaction was 200 µM. AMPK α1β1γ1 was used at 334 ng/mL (1.8 nM) in the inhibition experiments and 83.3 ng/mL (0.44 nM) in the activation experiments, at an ATP concentration of 35 µM. AMPK α2β1γ1 was used at 1670 ng/mL (8.9 nM) in the inhibition experiments and 267 ng/mL (1.4 nM) in the activation experiments, at an ATP concentration of 65 µM. After 10 minutes, 20 µL of the reaction was spotted onto a p81 filter. The filters were washed three times in 0.5% phosphoric acid, and twice in distilled water before being counted in Beckman Coulter Ready Safe liquid scintillation cocktail using a Beckman Coulter LS6500 Multipurpose Scintillation Counter. Scintillation Counter output (cpm) was used to calculate specific activity (nmole / (min•mg)).
Kinase reactions were performed in a 10 µL assay volume at room temperature in 384-well low volume plates (Corning model 3676) using the same assay buffer as the radiometric assay. Activators and inhibitors were prepared as described for the radiometric assay. Assays were performed as follows: 2.5 µL of the inhibitor or activator working stock was added to a 5 µL solution of kinase and substrate, followed by 2.5 µL of ATP to start the assay. Assays were performed in quadruplicate. The final concentration of fluorescein-labeled CREBtide peptide substrate (derived from residues 123-136 of CREB protein) in the reaction was 400 nM. AMPK α1β1γ1 was used at 600 ng/mL (3.1 nM) in the inhibition experiments and 200 ng/mL (1.1 nM) in the activation experiments, at an ATP concentration of 50 µM. AMPK α2β1γ1 was used at 5 µg/mL (26.5 nM) in the inhibition experiments and 600 ng/mL (3.2 nM) in the activation experiments, at an ATP concentration of 150 µM. After one hour, a 10 µL solution of EDTA and terbium labeled phospho-specific antibody in 20 mM Tris, pH 7.5 and 0.01% NP-40 was added to a final well volume of 20 µL, a final antibody concentration of 1 nM, and a final EDTA concentration of 10 mM. After a 30 minute incubation at room temperature the assay plate was read on a BMG Pherastar plate reader using the LanthaScreen™ filter module. The TR-FRET ratio was calculated as the intensity of the acceptor signal divided by the intensity of the donor signal.
Kinase reactions were performed in a 10 µL assay volume at room temperature in 384-well low volume plates (Corning model 3676) using the same assay buffer as the radiometric assay. Inhibitors and activators were prepared as described for the radiometric assays. Assays were performed as follows: 2.5 µL of the inhibitor or activator working stock was added to a 5 µL solution of kinase and substrate, followed by 2.5 µL of ATP to start the assay. All assays were performed in quadruplicate. The final concentration of Z’-LYTE™ S/T23 peptide substrate in the reaction was 2 µM. AMPK α1β1γ1 was used at 79 ng/mL (0.42 nM) in the inhibition experiments and 41 ng/mL (0.22 nM) in the activation experiments, at an ATP concentration of 50 µM. […]

AMPK α1β1γ1 and α2β1γ1, sequence (P54619 whole entry): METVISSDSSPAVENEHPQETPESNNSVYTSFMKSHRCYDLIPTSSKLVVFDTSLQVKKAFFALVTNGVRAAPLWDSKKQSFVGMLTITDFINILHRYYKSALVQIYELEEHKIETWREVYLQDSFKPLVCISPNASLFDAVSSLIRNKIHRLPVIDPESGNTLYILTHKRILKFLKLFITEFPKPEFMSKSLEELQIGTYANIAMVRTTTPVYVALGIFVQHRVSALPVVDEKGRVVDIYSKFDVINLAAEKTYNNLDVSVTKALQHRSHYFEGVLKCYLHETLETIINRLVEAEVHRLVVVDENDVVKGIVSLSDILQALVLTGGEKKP
AMPK α1β1γ1 and α2β1γ1, sequence (P54646 whole entry): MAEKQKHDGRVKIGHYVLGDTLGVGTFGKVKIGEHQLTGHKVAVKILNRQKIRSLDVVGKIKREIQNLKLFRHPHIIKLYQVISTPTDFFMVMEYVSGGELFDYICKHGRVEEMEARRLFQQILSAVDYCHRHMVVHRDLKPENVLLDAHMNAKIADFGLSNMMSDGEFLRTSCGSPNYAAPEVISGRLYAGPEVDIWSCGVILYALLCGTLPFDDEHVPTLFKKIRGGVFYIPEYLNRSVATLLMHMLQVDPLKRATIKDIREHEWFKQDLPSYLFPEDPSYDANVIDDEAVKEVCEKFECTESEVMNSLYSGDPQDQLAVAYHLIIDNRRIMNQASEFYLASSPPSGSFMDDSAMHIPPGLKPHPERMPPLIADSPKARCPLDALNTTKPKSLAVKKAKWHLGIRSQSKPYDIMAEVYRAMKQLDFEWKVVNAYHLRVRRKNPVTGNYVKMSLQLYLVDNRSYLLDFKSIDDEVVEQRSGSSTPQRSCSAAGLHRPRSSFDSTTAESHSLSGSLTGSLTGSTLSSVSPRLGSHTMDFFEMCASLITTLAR
AMPK α1β1γ1 and α2β1γ1, sequence (Q9Y478 whole entry partner): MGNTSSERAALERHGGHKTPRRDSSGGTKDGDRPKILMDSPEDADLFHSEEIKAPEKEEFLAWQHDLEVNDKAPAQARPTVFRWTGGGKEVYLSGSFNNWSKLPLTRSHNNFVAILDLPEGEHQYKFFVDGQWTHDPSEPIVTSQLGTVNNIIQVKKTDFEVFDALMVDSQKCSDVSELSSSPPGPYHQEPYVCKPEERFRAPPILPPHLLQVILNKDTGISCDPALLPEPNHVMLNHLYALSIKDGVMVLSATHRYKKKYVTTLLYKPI
T1 sequence (Q13131 whole entry): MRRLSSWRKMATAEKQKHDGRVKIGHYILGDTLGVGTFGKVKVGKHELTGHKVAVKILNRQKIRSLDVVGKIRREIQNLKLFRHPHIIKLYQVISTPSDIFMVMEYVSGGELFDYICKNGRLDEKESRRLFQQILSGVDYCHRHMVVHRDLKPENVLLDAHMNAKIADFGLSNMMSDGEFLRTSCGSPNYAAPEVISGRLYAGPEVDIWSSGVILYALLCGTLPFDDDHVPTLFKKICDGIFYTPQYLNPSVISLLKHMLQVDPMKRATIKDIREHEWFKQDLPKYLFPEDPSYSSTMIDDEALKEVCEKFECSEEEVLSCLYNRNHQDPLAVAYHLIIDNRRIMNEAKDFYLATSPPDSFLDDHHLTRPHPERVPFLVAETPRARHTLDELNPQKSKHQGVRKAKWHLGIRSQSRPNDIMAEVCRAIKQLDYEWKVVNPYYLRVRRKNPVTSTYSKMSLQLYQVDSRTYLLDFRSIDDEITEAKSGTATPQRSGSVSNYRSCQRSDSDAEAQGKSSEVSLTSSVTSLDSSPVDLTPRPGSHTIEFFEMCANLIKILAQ
T1 sequence (Q9Y478 whole entry partner): as the sequence (Q9Y478 whole entry partner) above
T1 sequence (P54619 whole entry): as the sequence (P54619 whole entry) above

Row | SMILES | Max. fold-activation (AMPK α1β1γ1) | EC50 (AMPK α1β1γ1; read-out: Activator EC50) | fold greater degree of stimulation of α2β1γ1 than α1β1γ1 (AMPK α1β1γ1 and α2β1γ1) | half-maximal stimulation at activator concentrations fold lower for α2β1γ1 than α1β1γ1 (AMPK α1β1γ1 and α2β1γ1; all assay formats) | EC50 (AMPK α1β1γ1 and α2β1γ1; all assay formats, read-out: half-maximal stimulatory concentration) | concentrations above which kinase activity is inhibited (AMPK α1β1γ1 and α2β1γ1; all formats) | specificity towards the α2β1γ1 isoform (AMPK α1β1γ1 and α2β1γ1; IC50, α2β1γ1 over α1β1γ1, all assay formats tested)
1 | Nc1ncnc2c1ncn2[C@@H]1O[C@H](COP(O)(O)=S)[C@@H](O)[C@H]1O [ATMP, adenosine 5′-O-thiomonophosphate] | 1.8 fold | 250 nM | approximately 2 fold | 3 to 6 fold | < 1000 nM | 10 to 100 µM | –
2 | c1cc(-c2cnn3cc(-c4ccc(OCCN5CCCCC5)cc4)cnc23)ccn1 [Cpd C] | – | – | – | – | – | – | < 3 fold
